# Measured values taken from patent US20190322676A1, “CERAMIDE GALACTOSYLTRANSFERASE INHIBITORS FOR THE TREATMENT OF DISEASE” (BioMarin Pharmaceutical Inc., priority 2016, published 2019).
# Where a name gives a salt, the structure may show the parent alone.
# Target: T1, human CGT (ceramide galactosyltransferase), CHO/CGT lysate (Homo sapiens, UniProt Q16880)
# T1 construct: Full-length human CGT cDNA was cloned into the BamH1/Xho1 site of pcDNA3.1 (+); expressed in transfected cells; host or cells: Chinese hamster ovary (CHO) cells; lysate prepared with M-PER
# T1 sequence (Q16880 21-541): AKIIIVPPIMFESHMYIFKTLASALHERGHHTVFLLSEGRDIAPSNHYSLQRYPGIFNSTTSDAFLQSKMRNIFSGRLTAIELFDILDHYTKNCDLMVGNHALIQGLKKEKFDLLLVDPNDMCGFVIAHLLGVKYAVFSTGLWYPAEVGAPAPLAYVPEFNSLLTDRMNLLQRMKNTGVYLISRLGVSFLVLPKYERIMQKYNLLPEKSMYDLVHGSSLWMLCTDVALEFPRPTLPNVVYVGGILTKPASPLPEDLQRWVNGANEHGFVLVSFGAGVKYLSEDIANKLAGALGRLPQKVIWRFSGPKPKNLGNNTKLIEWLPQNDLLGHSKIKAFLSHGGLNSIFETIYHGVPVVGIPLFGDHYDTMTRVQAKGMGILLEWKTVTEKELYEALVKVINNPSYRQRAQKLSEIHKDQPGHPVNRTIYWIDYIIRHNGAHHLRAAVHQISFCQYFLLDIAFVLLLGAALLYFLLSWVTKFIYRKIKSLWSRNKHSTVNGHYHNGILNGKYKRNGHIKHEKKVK
# Test: CGT enzyme assay, RapidFire/MS/MS readout (Table 1 ranges with one asterisk *)
# Assay type: biochemical
# Details: RapidFire method (range with one asterisk *)
# Method in brief: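 Lysate (4 μg) of CHO cells transfected with full-length human CGT incubated 1 h at 37 °C with compound (0.001–50 μM) in pH 7.2 HEPES buffer with 10 μM C6-NBD-dihydro-ceramide, 17.5 μM UDP-galactose, Mg2+/Mn2+, CHAPS, BSA, 0.5% DMSO; ** set also contained 0.01% Tween 80. Product quantified by RapidFire/MS/MS, normalized to internal standard; IC50 from sigmoidal variable-slope fits.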
row,Structure (SMILES),IC50 [µM]
1,"NC1CC2CCC(C1)N2C(=O)[C@@H](NS(=O)(=O)c1ccc(OCC2CCCCC2)cc1)C(F)(F)c1ccc(Cl)cc1 (stereo partly drawn) [Compound 29-1, N-((2R)-3-(3-amino-8-azabicyclo[3.2.1]octan-8-yl)-1-(4-chlorophenyl)-1,1-difluoro-3-oxopropan-2-yl)-4-(cyclohexylmethoxy)benzenesulfonamide trifluoroacetate]",< 1
2,"CCCCOc1ccc(C(F)(F)[C@@H](NS(=O)(=O)c2ccc(OCC3CCCCC3)cc2)C(=O)N2CCC(N)CC2)cc1 [Compound 81-2, (S)—N-(3-(4-aminopiperidin-1-yl)-1-(4-butoxyphenyl)-1,1-difluoro-3-oxopropan-2-yl)-4-(cyclohexylmethoxy)benzenesulfonamide trifluoroacetate]",30 to 100
3,"CN([C@H](C(=O)N1CCC(N)CC1)C(F)(F)c1ccc(Br)cc1)S(=O)(=O)c1ccc2cc(OC3CCCC3)ccc2c1 [Compound 44-1, (R)—N-(3-(4-aminopiperidin-1-yl)-1-(4-bromophenyl)-1,1-difluoro-3-oxopropan-2-yl)-6-(cyclopentyloxy)-N-methylnaphthalene-2-sulfonamide]",< 1
4,"CCCCOc1cccc(C(F)(F)[C@@H](NS(=O)(=O)c2ccc3cc(OC4CCCC4)ccc3c2)C(=O)N2CCC(N)CC2)c1 [Compound 83-2, (S)—N-(3-(4-aminopiperidin-1-yl)-1-(3-butoxyphenyl)-1,1-difluoro-3-oxopropan-2-yl)-6-(cyclopentyloxy)naphthalene-2-sulfonamide trifluoroacetate]",1 to 10
5,"NC1CC2CCC(C1)N2C(=O)[C@@H](NS(=O)(=O)c1ccc2cc(OC3CCCCC3)ccc2c1)C(F)(F)c1ccc(Br)cc1 (stereo partly drawn) [Compound 33-1, N-((2R)-3-(3-amino-8-azabicyclo[3.2.1]octan-8-yl)-1-(4-bromophenyl)-1,1-difluoro-3-oxopropan-2-yl)-6-(cyclohexyloxy)naphthalene-2-sulfonamide trifluoroacetate]",< 1
6,"NC1CC2CCC(C1)N2C(=O)[C@H](NC(=O)[C@@H](O)c1ccc2cc(OC3CCCC3)ccc2c1)C(F)(F)c1ccc(-c2ccc(Cl)cc2)cc1 (stereo partly drawn) [Compound 136-2, (2S)—N-((2S)-3-(3-amino-8-azabicyclo[3.2.1]octan-8-yl)-1-(4′-chloro-[1,1′-biphenyl]-4-yl)-1,1-difluoro-3-oxopropan-2-yl)-2-(6-(cyclopentyloxy)naphthalen-2-yl)-2-hydroxyacetamide trifluoroacetate]",30 to 100
7,"CN([C@H](C(=O)N1C2CCC1CC(N)C2)C(F)(F)c1ccc(Br)cc1)S(=O)(=O)c1ccc2cc(OC3CCCC3)ccc2c1 (stereo partly drawn) [Compound 34-1, N-((2R)-3-(3-amino-8-azabicyclo[3.2.1]octan-8-yl)-1-(4-bromophenyl)-1,1-difluoro-3-oxopropan-2-yl)-6-(cyclopentyloxy)-N-methylnaphthalene-2-sulfonamide trifluoroacetate]",< 1
8,"COc1cc(C(F)(F)[C@H](NS(=O)(=O)c2ccc(OCC3CCCCC3)cc2)C(=O)N2C3CCC2CC(N)C3)ccc1Br (stereo partly drawn) [Compound 128-1, N-((2R)-3-(3-amino-8-azabicyclo[3.2.1]octan-8-yl)-1-(4-bromo-3-methoxyphenyl)-1,1-difluoro-3-oxopropan-2-yl)-4-(cyclohexylmethoxy) benzenesulfonamide]",< 1
9,"NC1CC2CCC(C1)N2C(=O)[C@H](NS(=O)(=O)c1ccc(OCC2CCCCC2)cc1)C(F)(F)c1ccc(-c2ccc(Cl)s2)cc1 (stereo partly drawn) [Compound 104-2, N-((2S)-3-(3-amino-8-azabicyclo[3.2.1]octan-8-yl)-1-(4-(5-chlorothiophen-2-yl)phenyl)-1,1-difluoro-3-oxopropan-2-yl)-4-(cyclohexylmethoxy)benzenesulfonamide]",10 to 30
10,"CN([C@@H](C(=O)N1C2CCC1CC(N)C2)C(F)(F)c1ccc(Cl)cc1)S(=O)(=O)c1ccc2cc(OC3CCCC3)ccc2c1 (stereo partly drawn) [Compound 52-2, N-((2S)-3-(3-amino-8-azabicyclo[3.2.1]octan-8-yl)-1-(4-chlorophenyl)-1,1-difluoro-3-oxopropan-2-yl)-6-(cyclopentyloxy)-N-methylnaphthalene-2-sulfonamide]",30 to 100
11,"COc1cc(C(F)(F)[C@@H](NS(=O)(=O)c2ccc(OCC3CCCCC3)cc2)C(=O)N2C3CCC2CC(N)C3)ccc1Br (stereo partly drawn) [Compound 128-2, N-((2S)-3-(3-amino-8-azabicyclo[3.2.1]octan-8-yl)-1-(4-bromo-3-methoxyphenyl)-1,1-difluoro-3-oxopropan-2-yl)-4-(cyclohexylmethoxy)benzenesulfonamide]",1 to 10
12,"CC(C)Oc1ccc2cc(S(=O)(=O)N(C)[C@H](C(=O)N3C4CCC3CC(N)C4)C(F)(F)c3ccc(Br)cc3)ccc2c1 (stereo partly drawn) [Compound 46-1, N-((2R)-3-(3-amino-8-azabicyclo[3.2.1]octan-8-yl)-1-(4-bromophenyl)-1,1-difluoro-3-oxopropan-2-yl)-6-isopropoxy-N-methylnaphthalene-2-sulfonamide trifluoroacetate]",1 to 10
13,"CCCCOc1ccc(C(F)(F)[C@H](C(=O)N2C3CCC2CC(N)C3)N(C)S(=O)(=O)c2ccc3cc(OC4CCCC4)ccc3c2)cc1 (stereo partly drawn) [Compound 51-2, N-((2S)-3-(3-amino-8-azabicyclo[3.2.1]octan-8-yl)-1-(4-butoxyphenyl)-1,1-difluoro-3-oxopropan-2-yl)-6-(cyclopentyloxy)-N-methylnaphthalene-2-sulfonamide]",1 to 10
14,"NC1CC2CCC(C1)N2C(=O)[C@@H](NC(=O)C(=O)c1ccc2cc(OC3CCCC3)ccc2c1)C(F)(F)c1ccc(-c2ccc(Cl)cc2)cc1 (stereo partly drawn) [Compound 133-1, N-((2R)-3-(3-amino-8-azabicyclo[3.2.1]octan-8-yl)-1-(4′-chloro-[1,1′-biphenyl]-4-yl)-1,1-difluoro-3-oxopropan-2-yl)-2-(6-(cyclopentyloxy)naphthalen-2-yl)-2-oxoacetamide trifluoroacetate]",1 to 10
15,"CN([C@H](C(=O)N1CCC(N)CC1)C(F)(F)c1ccc(Oc2ccccc2)cc1)S(=O)(=O)c1ccc(OCC2CCCCC2)cc1 [Compound 64-1, (R)—N-(3-(4-aminopiperidin-1-yl)-1,1-difluoro-3-oxo-1-(4-phenoxyphenyl)propan-2-yl)-4-(cyclohexylmethoxy)-N-methylbenzenesulfonamide]",1 to 10
16,"NC1CC2CCC(C1)N2C(=O)[C@H](NS(=O)(=O)c1ccc2cc(OC3CCC3)ccc2c1)C(F)(F)c1ccc(Br)cc1 (stereo partly drawn) [Compound 47-2, N-((2S)-3-(3-amino-8-azabicyclo[3.2.1]octan-8-yl)-1-(4-bromophenyl)-1,1-difluoro-3-oxopropan-2-yl)-6-cyclobutoxynaphthalene-2-sulfonamide]",10 to 30
17,"NC1CC2CCC(C1)N2C(=O)[C@@H](NS(=O)(=O)c1ccc(OCC2CCCCC2)cc1)C(F)(F)c1ccc(OC2CCCCC2)cc1 (stereo partly drawn) [Compound 105-1, N-((2R)-3-(3-amino-8-azabicyclo[3.2.1]octan-8-yl)-1-(4-(cyclohexyloxy)phenyl)-1,1-difluoro-3-oxopropan-2-yl)-4-(cyclohexylmethoxy) benzenesulfonamide]",< 1
18,"NC1CC2CCC(C1)N2C(=O)[C@@H](NS(=O)(=O)c1ccc2c(cnn2CC2CCCC2)c1)C(F)(F)c1ccc(Br)cc1 (stereo partly drawn) [Compound 74-1, N-((2R)-3-(3-amino-8-azabicyclo[3.2.1]octan-8-yl)-1-(4-bromophenyl)-1,1-difluoro-3-oxopropan-2-yl)-1-(cyclopentylmethyl)-1H-indazole-5-sulfonamide]",1 to 10
19,"NC1CCN(C(=O)[C@@H](NC(=O)[C@@H](O)c2ccc(OCC3CCCCC3)cc2)C(F)(F)c2ccc(-c3ccc(Cl)cc3)cc2)CC1 [Compound 141-3, (S)—N—((R)-3-(4-aminopiperidin-1-yl)-1-(4′-chloro-[1,1′-biphenyl]-4-yl)-1,1-difluoro-3-oxopropan-2-yl)-2-(4-(cyclohexylmethoxy)phenyl)-2-hydroxyacetamide trifluoroacetate]",1 to 10
20,"CN([C@@H](C(=O)N1CCC(N)CC1)C(F)(F)c1ccc(Cl)cc1)S(=O)(=O)c1ccc2cc(OC3CCCC3)ccc2c1 [Compound 100-2, (S)—N-(3-(4-aminopiperidin-1-yl)-1-(4-chlorophenyl)-1,1-difluoro-3-oxopropan-2-yl)-6-(cyclopentyloxy)-N-methylnaphthalene-2-sulfonamide]",10 to 30
21,"CN([C@@H](C(=O)N1C2CCC1CC(N)C2)C(F)(F)c1ccc(C(F)(F)F)cc1)S(=O)(=O)c1ccc2cc(OC3CCCC3)ccc2c1 (stereo partly drawn) [Compound 73-2, N-((2S)-3-(3-amino-8-azabicyclo[3.2.1]octan-8-yl)-1,1-difluoro-3-oxo-1-(4-(trifluoromethyl)phenyl)propan-2-yl)-6-(cyclopentyloxy)-N-methylnaphthalene-2-sulfonamide]",1 to 10
22,"O=C([C@H](NS(=O)(=O)c1ccc2cc(OC3CCCC3)ccc2c1)C(F)(F)c1ccc(-c2ccc(Cl)cc2)cc1)N1CCNCC1 [Compound 137-2, (S)—N-(1-(4′-chloro-[1,1′-biphenyl]-4-yl)-1,1-difluoro-3-oxo-3-(piperazin-1-yl)propan-2-yl)-6-(cyclopentyloxy)naphthalene-2-sulfonamide trifluoroacetate]",10 to 30
